According to patent publication US20160273042A1, “GENETIC MARKERS OF ANTIPSYCHOTIC RESPONSE” (SUREGENE, LLC, priority 2013, published 2016):
Where “and” joins values, the source holds several entries; their conditions need not be identical. Identical values can stand only once. Entries after “also recorded” stand apart in the source; their conditions may differ.

How the values were obtained:
[1] = test system: patients of the CATIE study (schizophrenia); assay: CATIE trial: change in PANSS score (delta PANSS, LOCF) for subjects stratified by GARP genetic signature status; assay type: in vivo, human; conditions: for Delta PANSS, Mean, GARP-1 negative: GARP-1 negative subjects; for Delta PANSS, Mean, GARP-1 negative / Delta PANSS, Mean, GARP-1 positive / Delta PANSS, Mean, GARP-2 negative / Delta PANSS, Mean, GARP-3 negative / Delta PANSS, Mean, GARP-3 positive / Delta PANSS, Mean, GARP-4 negative / Delta PANSS, Mean, GARP-4 positive / Delta PANSS, Mean, GARP-2 positive: LOCF, CATIE Phases 1-2; for Delta PANSS, Mean, GARP-1 positive / response in GARP-1 positive subjects, in words: GARP-1 positive subjects; for Delta PANSS, Mean, GARP-2 negative: GARP-2 negative subjects; for Delta PANSS, Mean, GARP-3 negative: GARP-3 negative subjects; for Delta PANSS, Mean, GARP-3 positive / response in GARP-3 positive subjects, in words: GARP-3 positive subjects; for Delta PANSS, Mean, GARP-4 negative: GARP-4 negative subjects; for Delta PANSS, Mean, GARP-4 positive: GARP-4 positive subjects; for Relative efficacy (positive), GARP-1: GARP-1 positive versus negative subjects; for Relative efficacy (positive), GARP-1 / Relative efficacy (positive), GARP-2 / Relative efficacy (positive), GARP-3 / Relative efficacy (positive), GARP-4: t-test; for Relative efficacy (positive), GARP-2: GARP-2 positive versus negative subjects; for Relative efficacy (positive), GARP-3: GARP-3 positive versus negative subjects; for Relative efficacy (positive), GARP-4: GARP-4 positive versus negative subjects; for response in GARP-1 positive subjects, in words: compared with GARP-1 negative subjects or with other drugs; for response in GARP-2 positive subjects, in words: compared with GARP-2 negative subjects or with other drugs; for response in GARP-2 positive subjects, in words / Delta PANSS, Mean, GARP-2 positive: GARP-2 positive subjects; for response in GARP-3 positive subjects, in words: compared with GARP-3 negative subjects or with other drugs
Protocol: The CATIE study, a large federally funded clinical trial designed to assess the efficacy of antipsychotics in a real world setting, is a valuable resource for determining the role of genes in baseline psychopathology and drug response (Lieberman et al., 2005; Stroup et al., 2003). […] Additionally, whole genome SNP genotyping was performed for roughly half of the trial participants (Sullivan et al., 2008).
Genotype and phenotype data for the CATIE trial were recently made available to qualified researchers through the NIMH Center for Collaborative Genetic Studies on Mental Disorders. The sample consisted of a total of 738 patients. Further details on the patient population are described in the study by Sullivan and coworkers (Sullivan et al., 2008). The CATIE SNP genotype data evaluated included a total of 492,900 SNPs located throughout the genome.
The design of the CATIE study has been described in detail by others (Lieberman et al., 2005; Stroup et al., 2003). […] Subjects that failed Phase 1 treatment with the typical antipsychotic perphenazine were treated differently than those subjects that failed phase I treatment with an atypical antipsychotic. Instead of entering into Phase II of the trial, subjects who switched from perphenazine entered Phase IB. […] Subjects who failed Phase IB then entered Phase II.
A total of 738 subjects consented to provide DNA for genetic study. […] Only retrospective genetic analyses, judged to be exempt from human studies requirements by an IRB, were conducted in the current study. For the genetic analyses presented herein, the inventors combined and evaluated drug response data for Phase IA, Phase IB, and Phase II of the CATIE study. All tested patients were studied using well established clinical endpoints comparing baseline, intermediate, and last observation carried forward (LOCF) for the PANSS scores using CATIE data. LOCF analysis is a commonly used clinical endpoint for clinical trials for neuropsychiatric drugs, with particular changes in PANSS scores being used to indicate clinically significant response (Leucht et al., 2009).
Using the clinical data from the CATIE trial, the inventors derived several different metrics used for quantifying response in clinical trials of antipsychotic medications. The most commonly used psychometric instrument is the Positive and Negative Syndrome Scale (PANSS), a 30-item semi-quantitative instrument scored by clinical professionals (Kay et al., 1987). The greater the decrease in PANSS score, the better the clinical response. The most direct measure of clinical response is absolute change in PANSS score (delta PANSS). In addition to absolute change, the improvement is often reported as a percentage change from baseline PANSS score.
As mentioned previously, the mean change in PANSS at LOCF provides an important measure of efficacy in patients undergoing antipsychotic treatments. Indeed, many pivotal trials in the psychosis field used absolute and/or percentage change in PANSS Score as the primary endpoint (Leucht et al., 2009). […] Therefore, the inventors determined the impact of segmentation by GARP genetic signature status on the quantitative measure of clinical improvement—delta PANSS (for LOCF).
Each table lists the six drugs used during the first two phases of the CATIE trial.

[2] = hierarchy high / medium / low risk; cited from earlier work
[3] = test system: psychotic symptoms (PANSS); conditions: difference in mean response drug minus placebo arm, divided by standard deviation; negative = greater reduction in PANSS; cited from earlier work
[4] = test system: psychotic symptoms (PANSS); conditions: versus first generation antipsychotics; cited from earlier work

SMILES	Delta PANSS, Mean, GARP-1 negative [1]	Delta PANSS, Mean, GARP-1 positive [1]	Delta PANSS, Mean, GARP-2 negative [1]	Delta PANSS, Mean, GARP-3 negative [1]	Delta PANSS, Mean, GARP-3 positive [1]	Delta PANSS, Mean, GARP-4 negative [1]	Delta PANSS, Mean, GARP-4 positive [1]	worse response of GARP-2 positive than GARP-2 negative patients ([1]; difference in delta PANSS, GARP-2 positive vs negative) [points]	Relative efficacy (positive), GARP-1 [1]	Relative efficacy (positive), GARP-2 [1]	Relative efficacy (positive), GARP-3 [1]	Relative efficacy (positive), GARP-4 [1]	risk for weight gain, classification [2]	response in GARP-1 positive subjects, in words [1]	response in GARP-2 positive subjects, in words [1]	Effect Size vs. Placebo [3]	Delta PANSS, Mean, GARP-2 positive [1]	response in GARP-3 positive subjects, in words [1]	Effect Size vs. FGA [4]	response in GARP-1 positive subjects, in words ([1]; listed as ziprasidone)
CN1CCN(C2=Nc3cc(Cl)ccc3Nc3ccccc32)CC1 [Clozapine, clozapine]	−15.32	−14.0	−24.33	−13.6	−31	−13.4	−26.3	~20	–	–	–	–	–	–	–	–	–	–	–	–
Cc1cc2c(s1)Nc1ccccc1N=C2N1CCN(C)CC1 [Olanzapine, olanzapine]	−7.48	–	−10.73	−9.5	−6.3	−9.0	−9.3	–	Enhanced	Neutral	Neutral	Neutral	high risk	–	–	–	–	–	–	–
OCCN1CCN(CCCN2c3ccccc3Sc3ccc(Cl)cc32)CC1 [Perphenazine, perphenazine]	−6.40	2.84 and 2.8	0.52	−5.5	0.7	−4.7	−3.0	–	Decreased	Enhanced	Neutral	Neutral	–	decreased response; also recorded: Neither quetiapine nor perphenazine demonstrated efficacy	enhanced response; also recorded: responded better; also recorded: superior efficacy	–	–	–	–	–
OCCOCCN1CCN(C2=Nc3ccccc3Sc3ccccc32)CC1 [Quetiapine, quetiapine]	−0.53	–	−2.86	−0.1	−4.3	−0.7	−1.6	–	Neutral	Decreased	Neutral	Neutral	medium risk	Neither quetiapine nor perphenazine demonstrated efficacy	decreased response; also recorded: responded worse; also recorded: lack of efficacy	−0.42	1.51 and 1.5	enhanced response; also recorded: responded significantly better	0.01	–
Cc1nc2n(c(=O)c1CCN1CCC(c3noc4cc(F)ccc34)CC1)CCCC2 [Risperidone, risperidone]	−4.55	–	−4.65	−6.9	2.1	−5.4	−6.7	–	Enhanced	Neutral	Decreased	Neutral	medium risk	enhanced response; also recorded: significant efficacy	superior efficacy	−0.59	–	decreased response; also recorded: responded poorly	−0.25	–
O=C1Cc2cc(CCN3CCN(c4nsc5ccccc45)CC3)c(Cl)cc2N1 [Ziprasidone, ziprasidone]	−2.94	12.72 and 12.7	3.51	−0.1	−4.5	0.4	−4.3	–	Decreased	Enhanced	Neutral	Neutral	low risk	worsening of symptoms	enhanced response	−0.48	−2.8	–	−0.04	decreased response; also recorded: responded particularly poorly; also recorded: NON-response
O=C1CCc2ccc(OCCCCN3CCN(c4cccc(Cl)c4Cl)CC3)cc2N1 [aripiprazole]	–	–	–	–	–	–	–	–	–	–	–	–	low risk	NON-response	–	–	–	–	–	–
